Experimental data: patent US20240360151A1 (SANOFI, priority 2023, published 2024)

Columns and labels:
NLRP3 inflammasome = biological target: T1, NLRP3 inflammasome (Homo sapiens, UniProt Q96P20); test: IL-1β secretion assay (NLRP3 IC50) in LPS-primed, nigericin-activated THP-1 cells, HTRF; format: cell-based; settings: monocytic THP-1 cells; LPS 10 ng/mL 3 h priming, then compound + nigericin 10 μM 2 h; relative IC50, 10 concentrations, geometric mean
T1 construct: endogenous in cells; host or cells: THP-1 monocytic cells
Procedure, shortened: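 THP-1 cells primed with LPS 10 ng/mL for 3 h at 37° C., then compound (10-point 1:3 dilution, 0.1% DMSO) added with 10 μM nigericin for 2 h. Supernatant IL-1β measured by HTRF; relative IC50 from a 4-parameter logistic fit, reported as geometric mean.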

[1] = tested on: NF-kB pathway (TNF-α secretion by THP-1 cells); test: TNF-α secretion assay in LPS-stimulated THP-1 cells, Lumit immunoassay; format: cell-based, human; settings: monocytic THP-1 cells, LPS 10 ng/mL, relative IC50, 10 concentrations, geometric mean
Procedure, shortened: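 THP-1 monocytes in RPMI with 5% FBS were treated with compound, then stimulated with 10 ng/mL LPS for 3 h. Secreted TNF-α was measured in-plate by Lumit immunoassay. Relative IC50 came from 10-concentration curves fitted with a 4-parameter logistic model, reported as geometric mean.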

T1 sequence (Q96P20 whole entry): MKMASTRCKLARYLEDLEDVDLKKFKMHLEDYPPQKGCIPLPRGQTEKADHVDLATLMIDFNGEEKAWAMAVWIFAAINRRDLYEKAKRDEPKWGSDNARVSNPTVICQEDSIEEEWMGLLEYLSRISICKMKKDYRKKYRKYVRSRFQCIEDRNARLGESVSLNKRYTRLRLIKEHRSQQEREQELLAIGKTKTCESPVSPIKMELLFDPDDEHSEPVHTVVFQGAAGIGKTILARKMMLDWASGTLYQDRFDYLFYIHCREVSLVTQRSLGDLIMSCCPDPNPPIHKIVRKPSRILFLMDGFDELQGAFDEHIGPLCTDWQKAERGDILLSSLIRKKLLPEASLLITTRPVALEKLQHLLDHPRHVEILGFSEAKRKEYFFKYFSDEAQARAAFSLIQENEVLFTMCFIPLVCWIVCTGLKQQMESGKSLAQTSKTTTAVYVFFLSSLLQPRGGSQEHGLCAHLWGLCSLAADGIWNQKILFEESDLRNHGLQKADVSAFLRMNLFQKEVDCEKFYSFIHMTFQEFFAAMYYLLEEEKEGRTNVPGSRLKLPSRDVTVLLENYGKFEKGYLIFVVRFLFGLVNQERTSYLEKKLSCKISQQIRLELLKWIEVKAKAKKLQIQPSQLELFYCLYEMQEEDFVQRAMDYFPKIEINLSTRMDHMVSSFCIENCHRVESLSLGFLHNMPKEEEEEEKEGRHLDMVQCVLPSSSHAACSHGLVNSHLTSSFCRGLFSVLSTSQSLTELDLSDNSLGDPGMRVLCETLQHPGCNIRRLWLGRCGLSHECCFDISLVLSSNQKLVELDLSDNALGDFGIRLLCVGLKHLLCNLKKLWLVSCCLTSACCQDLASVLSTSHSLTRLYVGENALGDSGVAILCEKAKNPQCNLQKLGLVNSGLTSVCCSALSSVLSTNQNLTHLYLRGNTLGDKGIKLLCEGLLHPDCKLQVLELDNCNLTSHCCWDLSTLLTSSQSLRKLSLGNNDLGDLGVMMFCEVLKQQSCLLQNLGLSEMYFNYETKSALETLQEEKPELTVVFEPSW

| Structure (SMILES) | IC50 (NLRP3 inflammasome) [nM] | IC50 ([1]; Homo sapiens, THP-1, 3 h) [nM] | IC50 ([1]; 3 hours) [nM] |
| --- | --- | --- | --- |
| COC[C@H]1CN(c2ccc(-c3c(O)cc(Cl)cc3Cl)nn2)CCO1 [Example 33, 3,5-dichloro-2-[6-[(2R)-2-(methoxymethyl)morpholin-4-yl]pyridazin-3-yl]phenol] | 239 | > 10000 |  |
| Cc1cc(C(F)(F)F)cc(O)c1-c1ccc(N2CC[C@@H]3CCN(C)C[C@@H]32)nn1 (racemic) [Example 371, 2-[6-[rac-(3aS,7aR)-6-methyl-3,3a,4,5,7,7a-hexahydro-2H-pyrrolo[2,3-c]pyridin-1-yl]pyridazin-3-yl]-3-methyl-5-(trifluoromethyl)phenol] | 1 | > 10000 |  |
| Oc1cc(Cl)cc(Cl)c1-c1ccc(N2CCOCC2)nn1 [Example 38, 3,5-dichloro-2-(6-morpholinopyridazin-3-yl)phenol] | 90 | > 10000 |  |
| CCc1cc(C(F)(F)F)cc(O)c1-c1ccc(N2CCO[C@H](CO)C2)nn1 [Example 418, 3-ethyl-2-[6-[(2S)-2-(hydroxymethyl)morpholin-4-yl]pyridazin-3-yl]-5-(trifluoromethyl)phenol] | 13 | > 10000 |  |
| Cc1cc(Cl)cc(O)c1-c1ccc(N2CCO[C@H](CO)C2)nn1 [Example 63, 5-chloro-2-[6-[(2S)-2-(hydroxymethyl)morpholin-4-yl]pyridazin-3-yl]-3-methyl-phenol] | 6 | > 10000 |  |
| Cc1cc(C)c(-c2ccc(N3C[C@H]4COC[C@H]4C3)nn2)c(O)c1 [Example 206, 2-[6-[(3aS,6aR)-1,3,3a,4,6,6a-hexahydrofuro[3,4-c]pyrrol-5-yl]pyridazin-3-yl]-3,5-dimethyl-phenol] | 325 | > 10000 |  |
| Cc1ccc(-c2nnc(N3CCO[C@H](CO)C3)c3c2CCC3)c(O)c1 [Example 77, 2-[4-[(2S)-2-(hydroxymethyl)morpholin-4-yl]-6,7-dihydro-5H-cyclopenta[d]pyridazin-1-yl]-5-methyl-phenol] | 135 | > 10000 |  |
| CCN1CC[C@H]2OCCN(c3ccc(-c4c(C)cccc4O)nn3)[C@H]2C1 [Example 412, 2-[6-[(4aS,8aR)-6-ethyl-3,4a,5,7,8,8a-hexahydro-2H-pyrido[4,3-b][1,4]oxazin-4-yl]pyridazin-3-yl]-3-methyl-phenol] | 18 | > 10000 |  |
| Cc1cc(C)c(-c2ccc(N3C[C@@H](CO)O[C@H](CO)C3)nn2)c(O)c1 [Example 198, 2-[6-[(2S,6S)-2,6-bis(hydroxymethyl)morpholin-4-yl]pyridazin-3-yl]-3,5-dimethyl-phenol] | 16 | > 10000 |  |
| CCc1cccc(O)c1-c1ccc(N2CC[C@@H]3CCN(C)C[C@@H]32)nn1 (racemic) [Example 388, 3-ethyl-2-[6-[rac-(3aS,7aR)-6-methyl-3,3a,4,5,7,7a-hexahydro-2H-pyrrolo[2,3-c]pyridin-1-yl]pyridazin-3-yl]phenol] | 1 | > 10000 |  |
| CC(=O)NC[C@@H]1CN(c2ccc(-c3c(C)cc(C(F)(F)F)cc3O)nn2)CCO1 [Example 216, N-[[(2R)-4-[6-[2-hydroxy-6-methyl-4-(trifluoromethyl)phenyl]pyridazin-3-yl]morpholin-2-yl]methyl]acetamide] | 128 | > 10000 |  |
| Cc1cc(C(F)(F)F)cc(O)c1-c1ccc(N2CCOC(CN(C)C)C2)nn1 (single isomer, unassigned) [Example 60, 2-[6-[-2-[(dimethylamino)methyl]morpholin-4-yl]pyridazin-3-yl]-3-methyl-5-(trifluoromethyl)phenol] | 386 | > 10000 |  |
| OC[C@@H]1CN(c2ccc(-c3c(O)cccc3Cl)nn2)CCO1 [Example 48, 3-chloro-2-[6-[(2S)-2-(hydroxymethyl)morpholin-4-yl]pyridazin-3-yl]phenol] | 386 | > 10000 |  |
| Cc1cc(C(F)(F)F)cc(O)c1-c1cc(C#N)c(N2CCO[C@H](CO)C2)nn1 [Example 159, 3-[(2S)-2-(hydroxymethyl)morpholin-4-yl]-6-[2-hydroxy-6-methyl-4-(trifluoromethyl)phenyl]pyridazine-4-carbonitrile] | 43 | > 10000 |  |
| Cc1cc(C)c(-c2ccc(N3CCc4c(O)cccc43)nn2)c(O)c1 [Example 240, 1-[6-(2-hydroxy-4,6-dimethyl-phenyl)pyridazin-3-yl]indolin-4-ol] | 421 | > 10000 |  |
| Cc1cc(C)c(-c2ccc(N3CCO[C@@H](CN)C3)nn2)c(O)c1 [Example 87, 2-[6-[(2S)-2-(aminomethyl)morpholin-4-yl]pyridazin-3-yl]-3,5-dimethyl-phenol; 2,2,2-trifluoroacetic acid] | 311 | > 10000 |  |
| CC(=O)NCCC1CN(c2ccc(-c3c(C)cc(C(F)(F)F)cc3O)nn2)CCO1 (single isomer, unassigned) [Example 277, N-[2-[4-[6-[2-hydroxy-6-methyl-4-(trifluoromethyl)phenyl]pyridazin-3-yl]morpholin-2-yl]ethyl]acetamide] | 51 |  | 2040 |

| Structure (SMILES) | IC50 (NLRP3 inflammasome) [nM] | IC50 ([1]; Homo sapiens, THP-1, 3 h) [nM] | IC50 ([1]; 3 hours) [nM] |
| --- | --- | --- | --- |
| Oc1cc(Cl)cc(Cl)c1-c1ccc(N2CC3(CC(O)C3)C2)nn1 [Example 46, 2-[6-(2,4-dichloro-6-hydroxy-phenyl)pyridazin-3-yl]-2-azaspiro[3.3]heptan-6-ol] | 389 | > 10000 |  |
| Cc1cc(C)c(-c2ccc(N3CCc4ccc(O)cc43)nn2)c(O)c1 [Example 254, 1-[6-(2-hydroxy-4,6-dimethyl-phenyl)pyridazin-3-yl]indolin-6-ol] | 460 | 9970 |  |
| Cc1cc(C)c(-c2ccc(N3CCOC(CF)C3)nn2)c(O)c1 (stereo not drawn) [Example 174, 2-[6-[2-(fluoromethyl)morpholin-4-yl]pyridazin-3-yl]-3,5-dimethyl-phenol] | 170 | > 10000 |  |
| Cc1cc(C)c(-c2ccc(N3C[C@@H](CO)O[C@@H](CO)C3)nn2)c(O)c1 [Example 173, 2-[6-[(2R,6S)-2,6-bis(hydroxymethyl)morpholin-4-yl]pyridazin-3-yl]-3,5-dimethyl-phenol] | 40 | > 10000 |  |
| CC(=O)NCCC1CN(c2ccc(-c3c(C)cc(C(F)(F)F)cc3O)nn2)CCO1 (single isomer, unassigned) [Example 278, N-[2-[4-[6-[2-hydroxy-6-methyl-4-(trifluoromethyl)phenyl]pyridazin-3-yl]morpholin-2-yl]ethyl]acetamide] | 50 |  | > 10000 |
| Cc1cc(O)c(-c2ccc(N3CCO[C@H](CO)C3)nn2)c(C(F)F)c1 [Example 153, 3-(difluoromethyl)-2-[6-[(2S)-2-(hydroxymethyl)morpholin-4-yl]pyridazin-3-yl]-5-methyl-phenol] | 47 | > 10000 |  |
| Cc1cc(Cl)cc(O)c1-c1cc(CO)c(N2CCO[C@H](CO)C2)nn1 [Example 189, 5-chloro-2-[5-(hydroxymethyl)-6-[(2S)-2-(hydroxymethyl)morpholin-4-yl]pyridazin-3-yl]-3-methyl-phenol] | 12 | > 10000 |  |
| Cc1cc(C)c(-c2ccc(N3CCCc4cc(O)ccc43)nn2)c(O)c1 [Example 230, 1-[6-(2-hydroxy-4,6-dimethyl-phenyl)pyridazin-3-yl]-3,4-dihydro-2H-quinolin-6-ol] | 556 | 9140 |  |
| Cc1cc(Cl)cc(O)c1-c1ccc(N2C[C@@H](O)CC2=O)nn1 [Example 130, (4S)-1-[6-(4-chloro-2-hydroxy-6-methyl-phenyl)pyridazin-3-yl]-4-hydroxy-pyrrolidin-2-one] | 99 | > 10000 |  |
| COC[C@@H]1CCCN1c1ccc(-c2c(C)cc(C(F)(F)F)cc2O)nn1 [Example 15, 2-[6-[(2S)-2-(methoxymethyl)pyrrolidin-1-yl]pyridazin-3-yl]-3-methyl-5-(trifluoromethyl)phenol] | 406 | > 10000 |  |
| Cc1cc(O)c(-c2ccc(N3CCO[C@H](CO)C3)nn2)c(F)c1 [Example 45, 3-fluoro-2-[6-[(2S)-2-(hydroxymethyl)morpholin-4-yl]pyridazin-3-yl]-5-methyl-phenol] | 281 | > 10000 |  |
| Cc1ccc(-c2nnc(N3CCO[C@H](CO)C3)cc2C(F)(F)F)c(O)c1 [Example 155, 2-[6-[(2S)-2-(hydroxymethyl)morpholin-4-yl]-4-(trifluoromethyl)pyridazin-3-yl]-5-methyl-phenol] | 461 | > 10000 |  |
| Cc1cc(C(F)(F)F)cc(O)c1-c1ccc(N2CCO[C@H](CO)C2)nn1 [Example 16, 2-[6-[(2S)-2-(hydroxymethyl)morpholin-4-yl]pyridazin-3-yl]-3-methyl-5-(trifluoromethyl)phenol] | 25 | > 10000 |  |
| Cc1ccc(C)c(-c2ccc(N3CCO[C@H](CO)C3)nn2)c1O [Example 141, 2-[6-[(2S)-2-(hydroxymethyl)morpholin-4-yl]pyridazin-3-yl]-3,6-dimethylphenol] | 131 | > 10000 |  |
| Cc1cc(N2CCO[C@H](CO)C2)nnc1-c1ccc(Cl)cc1O [Example 85, 5-chloro-2-[6-[(2S)-2-(hydroxymethyl)morpholin-4-yl]-4-methyl-pyridazin-3-yl]phenol] | 33 | > 10000 |  |
| CCC(=O)C1CN(c2ccc(-c3c(C)cc(C)cc3O)nn2)CCO1 (single isomer, unassigned) [Example 157] | 314 | > 10000 |  |
